Test results published in patent publication US7563621B2, “Absorbing organic reagents into diagnostic test devices by formation of amine salt complexes” (Siemens Healhcare Diagnostics Inc, priority 2003, dated 2009).
Values joined by “and” are separate entries in the source; they are usually repeats but may differ in a detail not shown here. Identical values can stand only once. Counter-ions that a name gives are not always drawn.

Key:
[1] = biological target: human serum albumin (HSA) (Homo sapiens, UniProt P02768); experiment: Automated protein assay with pyrogallol red salts, 54 μM (Example 5); conditions: 10 minutes
Sequence of human serum albumin (HSA) (P02768 25-609): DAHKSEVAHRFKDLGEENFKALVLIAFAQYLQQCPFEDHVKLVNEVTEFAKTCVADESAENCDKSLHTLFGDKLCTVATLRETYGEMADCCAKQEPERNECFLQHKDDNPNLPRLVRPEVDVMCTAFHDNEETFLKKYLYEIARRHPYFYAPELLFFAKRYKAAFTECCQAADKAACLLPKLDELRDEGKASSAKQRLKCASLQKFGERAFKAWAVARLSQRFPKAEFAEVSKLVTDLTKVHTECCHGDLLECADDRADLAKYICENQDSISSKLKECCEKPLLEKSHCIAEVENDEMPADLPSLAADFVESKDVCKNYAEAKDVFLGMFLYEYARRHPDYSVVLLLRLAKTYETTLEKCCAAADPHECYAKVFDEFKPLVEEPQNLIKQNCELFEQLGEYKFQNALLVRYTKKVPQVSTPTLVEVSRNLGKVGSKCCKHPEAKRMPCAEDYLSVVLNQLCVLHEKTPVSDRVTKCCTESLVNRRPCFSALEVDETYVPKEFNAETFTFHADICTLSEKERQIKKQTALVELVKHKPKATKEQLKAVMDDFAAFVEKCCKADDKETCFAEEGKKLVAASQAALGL
Protocol: (§1) The dilutor was programmed for reactions of 180 μL reagent+40 μL sample. […] The samples were phosphate buffered saline (blank), human serum albumin (HSA) 25 mg/dL, and other proteins (i.e., human IgG, […], and Lambda Light Chain) at 25 mg/dL. Absorbance rate data were collected on a Biotek, Powerwave X Microplate Absorbance reader using BioTek “KC Jr” software to determine the relative detection of the different proteins (i.e., HSA, human IgG, […], and Lambda Light Chain) using salts of pyrogallol red. Two sets of replicates of the different proteins were run. […] The protein response was determined by subtracting the phosphate buffered saline sample reaction result from the protein reaction result.

human IgG = experiment: as above; conditions: IgG 25 mg/dL; 10 minutes; averaged data; listed as Trioctylamine Salt
Protocol: as §1

Lambda Light Chain = experiment: as above; conditions: Lambda Light Chain 25 mg/dL; 10 minutes; averaged data; listed as Trioctylamine Salt
Protocol: as §1

Tamm-Horsfall = Tamm-Horsfall (Homo sapiens, UniProt P07911); experiment: as above; conditions: 10 minutes
Protocol: as §1

[2] = Butanol/water partitioning of pyrogallol red dye salts (Example 3); type: physicochemical; conditions: 276 nm, Trioctylamine
Protocol: Extractions were then performed in Mixxor extractors.

[3] = HSA 25 mg/dL, 37° C, replicates #1 and #2
[4] = HSA, 37° C, replicates #1 and #2
[5] = Tamm-Horsfall 25 mg/dL, 37° C, replicates #1 and #2
[6] = Tamm-Horsfall, 37° C, replicates #1 and #2

## O=c1ccc2c(-c3ccccc3S(=O)(=O)O)c3ccc(O)c(O)c3oc-2c1O [Trioctylamine Pyrogallol Red Salt, pyrogallol red]
[1]; [3]
  600 nm Absorbance Level, salt with Protein: 0.454 and 0.464
  900 nm Absorbance Background Level, salt with Protein: 0.087 and 0.088
[1]; HSA 25 mg/dL, averaged data, listed as Trioctylamine Salt
  Reaction Absorbance at 600 nm − Absorbance at 900 nm (net protein response, protein minus non-protein sample): −0.021
[1]; [4]
  600 nm Absorbance Level, salt in Phosphate Buffered Saline (No Protein): 0.476 and 0.483
  900 nm Absorbance Background Level, salt in Phosphate Buffered Saline (No Protein): 0.082 and 0.081
Human IgG
  Reaction Absorbance at 600 nm − Absorbance at 900 nm (net protein response, protein minus non-protein sample): −0.011
Lambda Light Chain
  Reaction Absorbance at 600 nm − Absorbance at 900 nm (net protein response, protein minus non-protein sample): −0.042
Tamm-Horsfall; [5]
  600 nm Absorbance Level, salt with Protein: 0.454 and 0.45
  900 nm Absorbance Background Level, salt with Protein: 0.085 and 0.084
Tamm-Horsfall; Tamm-Horsfall 25 mg/dL, averaged data, listed as Trioctylamine Salt
  Reaction Absorbance at 600 nm − Absorbance at 900 nm (net protein response, protein minus non-protein sample): −0.034
Tamm-Horsfall; [6]
  600 nm Absorbance Level, salt in Phosphate Buffered Saline (No Protein): 0.485 and 0.486
  900 nm Absorbance Background Level, salt in Phosphate Buffered Saline (No Protein): 0.081 and 0.082
[2]
  Ratio of Butanol Absorbance to Water Absorbance: 3.17
[2]; butanol layer
  Absorbance of Dye Salt in Butanol: 0.155
[2]; water layer
  Absorbance of Dye Salt in Water: 0.049
